# Source: ChEMBL document CHEMBL3431459, “Roche carnitine palmitoyltransferase modulator screening data (supplementary data associated with the publication CHEMBL2216752)”
# pIC50: −log10 of the molar value.
# Key:
# [1] = molecular target: T1, Carnitine O-palmitoyltransferase 2, mitochondrial (Homo sapiens, UniProt P23786); experiment: (§1) SUPPLEMENTARY: Inhibition of Carnitine palmitoyltransferase 2
# T1 sequence (P23786 whole entry): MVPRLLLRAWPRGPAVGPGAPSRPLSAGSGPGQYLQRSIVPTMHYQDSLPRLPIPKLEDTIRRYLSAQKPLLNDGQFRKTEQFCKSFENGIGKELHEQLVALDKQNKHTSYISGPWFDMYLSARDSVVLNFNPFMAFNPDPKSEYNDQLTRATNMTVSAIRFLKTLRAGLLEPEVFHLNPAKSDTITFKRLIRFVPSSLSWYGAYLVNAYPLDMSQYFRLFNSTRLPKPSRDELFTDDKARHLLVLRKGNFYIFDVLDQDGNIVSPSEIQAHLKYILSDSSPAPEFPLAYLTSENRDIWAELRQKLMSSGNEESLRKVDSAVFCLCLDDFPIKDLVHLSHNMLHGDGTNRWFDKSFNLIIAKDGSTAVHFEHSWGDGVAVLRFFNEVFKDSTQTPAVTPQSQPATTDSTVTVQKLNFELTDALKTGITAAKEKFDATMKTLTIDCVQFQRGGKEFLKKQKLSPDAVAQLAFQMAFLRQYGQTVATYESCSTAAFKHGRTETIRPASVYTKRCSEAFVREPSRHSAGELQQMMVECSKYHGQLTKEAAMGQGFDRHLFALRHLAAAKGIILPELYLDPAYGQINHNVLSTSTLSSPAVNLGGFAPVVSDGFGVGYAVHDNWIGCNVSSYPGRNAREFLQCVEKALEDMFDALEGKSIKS
# [2] = molecular target: T2, Carnitine O-palmitoyltransferase 2, mitochondrial (Rattus norvegicus, UniProt P18886); experiment: as §1
# T2 sequence (P18886 whole entry): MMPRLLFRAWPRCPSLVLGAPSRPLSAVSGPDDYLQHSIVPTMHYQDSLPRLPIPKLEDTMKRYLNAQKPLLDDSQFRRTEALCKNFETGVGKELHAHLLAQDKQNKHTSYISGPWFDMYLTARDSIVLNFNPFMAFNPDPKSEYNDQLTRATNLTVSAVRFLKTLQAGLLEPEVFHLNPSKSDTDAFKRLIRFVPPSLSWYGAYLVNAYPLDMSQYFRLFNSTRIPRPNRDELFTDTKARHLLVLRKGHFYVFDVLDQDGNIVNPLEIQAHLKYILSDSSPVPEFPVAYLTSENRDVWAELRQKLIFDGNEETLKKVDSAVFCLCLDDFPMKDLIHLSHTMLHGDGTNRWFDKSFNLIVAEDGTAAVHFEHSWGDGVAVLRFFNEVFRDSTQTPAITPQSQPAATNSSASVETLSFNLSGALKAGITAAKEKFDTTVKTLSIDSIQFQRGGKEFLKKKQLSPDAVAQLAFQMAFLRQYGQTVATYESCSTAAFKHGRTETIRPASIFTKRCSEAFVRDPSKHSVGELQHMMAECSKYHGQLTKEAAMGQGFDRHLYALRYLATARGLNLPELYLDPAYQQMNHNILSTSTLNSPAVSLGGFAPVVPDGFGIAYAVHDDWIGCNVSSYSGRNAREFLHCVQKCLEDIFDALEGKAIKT
# [3] = molecular target: T3, Carnitine O-palmitoyltransferase 1, liver isoform (Rattus norvegicus, UniProt P32198); experiment: (§2) SUPPLEMENTARY: Inhibition of Carnitine palmitoyltransferase 1, liver isoform
# T3 sequence (P32198 whole entry): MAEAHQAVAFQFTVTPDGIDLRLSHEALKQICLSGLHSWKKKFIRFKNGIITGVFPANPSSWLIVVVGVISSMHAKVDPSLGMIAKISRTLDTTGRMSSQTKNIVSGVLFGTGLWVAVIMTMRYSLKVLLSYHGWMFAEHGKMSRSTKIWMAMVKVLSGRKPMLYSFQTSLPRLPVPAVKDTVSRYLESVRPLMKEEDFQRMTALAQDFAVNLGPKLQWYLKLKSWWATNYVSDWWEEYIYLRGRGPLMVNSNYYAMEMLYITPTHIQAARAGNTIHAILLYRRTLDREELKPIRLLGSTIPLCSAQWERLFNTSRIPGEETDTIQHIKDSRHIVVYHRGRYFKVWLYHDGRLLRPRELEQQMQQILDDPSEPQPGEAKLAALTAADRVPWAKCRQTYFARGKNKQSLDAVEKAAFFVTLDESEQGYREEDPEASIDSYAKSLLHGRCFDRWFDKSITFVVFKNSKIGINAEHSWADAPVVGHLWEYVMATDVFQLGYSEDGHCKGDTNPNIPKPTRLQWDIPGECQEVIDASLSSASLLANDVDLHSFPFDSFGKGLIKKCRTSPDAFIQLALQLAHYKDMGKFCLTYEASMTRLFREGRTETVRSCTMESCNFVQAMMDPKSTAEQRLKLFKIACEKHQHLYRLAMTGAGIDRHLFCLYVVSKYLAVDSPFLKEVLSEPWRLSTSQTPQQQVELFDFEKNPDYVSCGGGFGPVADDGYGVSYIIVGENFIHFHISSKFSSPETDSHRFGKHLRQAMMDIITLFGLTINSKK
# [4] = molecular target: T4, Carnitine O-palmitoyltransferase 1, liver isoform (Homo sapiens, UniProt P50416); experiment: as §2
# T4 sequence (P50416 whole entry): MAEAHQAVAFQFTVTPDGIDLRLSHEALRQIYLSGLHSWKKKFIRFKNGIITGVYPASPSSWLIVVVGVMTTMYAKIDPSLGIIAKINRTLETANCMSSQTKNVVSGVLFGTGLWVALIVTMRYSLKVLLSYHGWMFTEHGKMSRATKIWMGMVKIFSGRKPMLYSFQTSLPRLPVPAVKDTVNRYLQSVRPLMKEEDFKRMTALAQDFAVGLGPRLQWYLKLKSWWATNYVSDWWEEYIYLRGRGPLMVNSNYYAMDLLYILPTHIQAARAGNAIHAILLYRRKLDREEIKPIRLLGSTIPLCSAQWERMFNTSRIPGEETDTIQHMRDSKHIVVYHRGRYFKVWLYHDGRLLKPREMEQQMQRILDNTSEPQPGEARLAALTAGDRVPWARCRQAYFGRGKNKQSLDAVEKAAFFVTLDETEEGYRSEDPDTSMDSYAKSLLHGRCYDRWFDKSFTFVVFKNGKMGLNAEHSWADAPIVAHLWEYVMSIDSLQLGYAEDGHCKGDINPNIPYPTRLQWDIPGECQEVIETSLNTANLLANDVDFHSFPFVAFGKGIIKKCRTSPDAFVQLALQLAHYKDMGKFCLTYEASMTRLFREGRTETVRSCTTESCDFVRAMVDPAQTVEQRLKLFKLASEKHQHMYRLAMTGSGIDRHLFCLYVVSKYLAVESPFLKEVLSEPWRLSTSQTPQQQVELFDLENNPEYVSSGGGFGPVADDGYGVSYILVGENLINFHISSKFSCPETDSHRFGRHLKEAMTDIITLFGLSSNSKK
# [5] = molecular target: T5, Carnitine O-palmitoyltransferase 1, muscle isoform (Homo sapiens, UniProt Q92523); experiment: SUPPLEMENTARY: Inhibition of Carnitine palmitoyltransferase 1, muscle isoform; set-up: species or system Muscle tissue
# T5 sequence (Q92523 whole entry): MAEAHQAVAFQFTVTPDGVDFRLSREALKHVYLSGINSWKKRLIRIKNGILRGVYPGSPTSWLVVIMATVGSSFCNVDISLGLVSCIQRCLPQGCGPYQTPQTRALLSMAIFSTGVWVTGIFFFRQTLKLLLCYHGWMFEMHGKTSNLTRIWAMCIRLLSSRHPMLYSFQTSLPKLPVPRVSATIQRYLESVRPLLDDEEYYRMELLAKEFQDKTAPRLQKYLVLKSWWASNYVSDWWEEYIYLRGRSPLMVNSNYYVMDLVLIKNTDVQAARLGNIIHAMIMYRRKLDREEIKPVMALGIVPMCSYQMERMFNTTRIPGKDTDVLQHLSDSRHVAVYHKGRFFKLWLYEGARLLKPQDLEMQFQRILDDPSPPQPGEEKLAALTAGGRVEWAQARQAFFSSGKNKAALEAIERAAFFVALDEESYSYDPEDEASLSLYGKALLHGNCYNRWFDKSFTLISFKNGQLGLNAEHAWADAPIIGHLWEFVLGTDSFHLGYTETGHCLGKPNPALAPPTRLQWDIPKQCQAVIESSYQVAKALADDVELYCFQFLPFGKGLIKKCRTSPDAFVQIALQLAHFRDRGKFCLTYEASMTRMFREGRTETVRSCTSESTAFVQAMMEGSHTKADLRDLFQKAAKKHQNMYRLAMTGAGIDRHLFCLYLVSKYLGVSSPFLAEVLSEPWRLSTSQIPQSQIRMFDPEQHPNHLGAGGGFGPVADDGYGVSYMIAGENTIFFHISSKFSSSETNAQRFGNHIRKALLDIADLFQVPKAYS
# [6] = SUPPLEMENTARY: Lipophilicity (log D) Determination by high-throughput shake-flask; type: physicochemical; conditions: octanol/water
# [7] = SUPPLEMENTARY: PAMPA permeability assay; type: physicochemical; conditions: read-out: Permeability
# [8] = SUPPLEMENTARY: Lyophilisation Solubility Assay (LYSA); type: physicochemical; conditions: read-out: Kinetic_solubility
Structure (SMILES),pIC50 [1],pIC50 [2],pIC50 [3],pIC50 [4],pIC50 [5],logD [6],Papp [7],solubility kinetic [8]
COc1ccc(C)cc1S(=O)(=O)N1CCCc2ccc(C(=O)Nc3nc(CC(=O)O)cs3)cc21,< 4.00,< 4.00,7.38,7.26,5.62,3.19,1.69 ×10⁻⁶ cm/s,51 µg/mL
COc1ccc(Cl)cc1S(=O)(=O)Nc1cc(C(=O)Nc2ccccc2)ccc1/C=C/C(=O)O,< 4.00,< 4.00,7.10,6.87,4.08,0.36,1 ×10⁻⁶ cm/s,> 585 µg/mL
COc1ccc(Cl)cc1S(=O)(=O)N1COc2ccc(C(=O)Nc3ccn(CC(=O)O)n3)cc21,< 4.00,< 4.00,6.87,6.87,4.42,-1.22,0.03 ×10⁻⁶ cm/s,521 µg/mL
COc1ccc(Cl)cc1S(=O)(=O)N(C)c1cc(C(=O)Nc2nc(CC(=O)O)cs2)cc2c1OCO2,4.55,4.17,7.20,7.29,5.94,-0.12,2.43 ×10⁻⁶ cm/s,399 µg/mL
COc1ccc(Cl)cc1S(=O)(=O)N(C)c1cc(C(=O)Nc2ccc(C(=O)O)cc2)cc2c1OCCO2,4.68,4.54,6.60,6.66,5.39,0.58,2.54 ×10⁻⁶ cm/s,> 710 µg/mL
COc1ccc(Cl)cc1S(=O)(=O)N(C)c1cc(C(=O)Nc2nc(CC(=O)O)cs2)cc2c1OCCO2,< 4.00,< 4.00,6.96,7.09,5.81,-0.18,1.28 ×10⁻⁶ cm/s,382 µg/mL
COc1ccc(Cl)cc1S(=O)(=O)N(C)c1cc(C(=O)Nc2ccc(C(=O)O)cc2)cc2c1OCO2,4.75,4.57,6.92,6.88,5.76,0.26,2.06 ×10⁻⁶ cm/s,13 µg/mL
COc1ccc(Cl)cc1S(=O)(=O)c1cn(CCCC(=O)O)c2ccc(C(=O)Nc3ccccc3)cc12,4.41,< 4.00,8.00,7.82,4.92,0.98,0.27 ×10⁻⁶ cm/s,133 µg/mL
COc1ccc(Cl)cc1S(=O)(=O)c1cn(CCO)c2ccc(C(=O)Nc3ccccc3)cc12,< 4.00,< 4.00,7.69,7.36,< 4.00,3.4,0.06 ×10⁻⁶ cm/s,< 1 µg/mL
COc1ccc(Cl)cc1S(=O)(=O)c1cn(CCCO)c2ccc(C(=O)Nc3ccccc3)cc12,< 4.00,< 4.00,8.00,7.35,< 4.00,3.62,0.06 ×10⁻⁶ cm/s,< 1 µg/mL
